As a reminder, the IC50 is the midpoint of a concentration-inhibition curve.

Series [1] has as its system human gallbladder cancer cell GBC-SD. The experiment in a line: MTT proliferation inhibition, GBC-SD. The note with it: 72 h. It is filed as cell-based. From the text: (§1) The tumor cells included, but were not limited to the following cells: human colorectal cancer cell SW480, human gastric adenocarcinoma cell MGC-803, human […], human lymphoma cell U937, human liver cancer cell Hep-G2, human cervical cancer cell Hela, human neuroglioma cell BT-325, human medulloblastoma D341 Med, and human gallbladder cancer cell GBC-SD.
(§2) Experimental method: cells in exponential growth phase were collected, and seeded to a 96-well cell culture plate, at a final concentration of 5×10^3 cells/90 μl/well. […] After the treatment for 72 h, 10 μl MTT solution (5 mg/ml, Sigma) was added to each well, and the cells were further cultured for 4 h. The culture medium was discarded, 100 μl DMSO was added to each well, and dissolution was carried out under rotation on a shaking table for 10 min.

Series [2] has as its system human colorectal cancer cell SW480. Put plainly: MTT proliferation inhibition, SW480. In kind it is cell-based.
From the text: as §1, §2

Series [3] can be described thus: Affect factor test: related substance and transformation in crystal form (10 days). The following applies: for Purity, High temperature (60° C.) / Purity, High humidity (RH = 92.5%) / Purity, Illumination (ultraviolet lamp): 10 days; for Crystal form: after 10 days at high temperature, high humidity or illumination; for Purity of raw material: before the affect factor test (baseline); for Stability of purity: high temperature, high humidity, or illumination, 10 days later. In kind it is physicochemical. From the text:
(§3) 3. Affect Factor Test of Different Crystal Forms
3.1 Related Substance and Transformation in Crystal Form (10 Days)

The subject of series [4] is human medulloblastoma D341 Med. Put plainly: MTT proliferation inhibition, D341 Med. It is filed as cell-based. The note with it: 72 h.
From the text: as §1, §2

Series [5] has as its system human neuroglioma cell BT-325. The experiment in a line: MTT proliferation inhibition, BT-325. In kind it is cell-based. The following applies: BT-325, MTT, 72 h.
From the text: as §1, §2

The test system of series [6] is human liver cancer cell Hep-G2. The experiment in a line: MTT proliferation inhibition, Hep-G2. It is filed as cell-based.
From the text: as §1, §2

For series [7], the system named is human gastric adenocarcinoma cell MGC-803. Put plainly: MTT proliferation inhibition, MGC-803. In kind it is cell-based. The following applies: MGC-803, MTT.
From the text: as §1, §2

For series [8], the system named is human cervical cancer cell Hela. The experiment in a line: MTT proliferation inhibition, Hela. In kind it is cell-based. The following applies: 72 h.
From the text: as §1, §2

The subject of another series is human lymphoma cell U937. The experiment in a line: MTT proliferation inhibition, U937. It is filed as cell-based.
From the text: as §1, §2

Series [9] concerns human small cell lung adenocarcinoma cell A549. The experiment in a line: MTT proliferation inhibition, A549. It is filed as cell-based.
From the text: as §1, §2

The nature of a further series: Hygroscopicity. It is filed as physicochemical. The protocol:
(§4) 3.2 Change in Appearance and Hygroscopicity (10 Days)
Hygroscopicity was measured by reference to methods in Appendix X IX J Laboratory Procedure on Determination of Hygroscopicity of Drugs in Pharmacopoeia of The People's Republic of China (2010).

Series [10] in a line: Stability of crystal forms in sodium phosphate/hydrochloric acid buffer pH=6.8 (37° C.). The note with it: for Purity: pH = 6.8 buffer, 37° C. In kind it is physicochemical. The protocol: 1. Test on Stability of Crystal Forms in Different Media
1.1 Stability of Different Crystal Forms in Sodium Phosphate/Hydrochloric Acid Buffer pH=6.8 (37° C.)

The nature of series [11]: Affect factor test: change in appearance (10 days). In kind it is physicochemical.
From the text: as §3, §4

A short description of series [12]: Stability of crystal forms in hydrochloric acid solution pH=1.2 (37° C.). The following applies: for Purity: pH = 1.2 hydrochloric acid solution, 37° C.; for Change of purity: stirred in hydrochloric acid medium pH=1.2 for 24 h. In kind it is physicochemical. The protocol:
1.2 Stability of Different Crystal Forms in Hydrochloric Acid Solution with pH=1.2 (37° C.)

The mark [13] stands for this setting: 72 h, listed as an amorphous form.
The mark [14] stands for this setting: 0 h (baseline), monofumarate monohydrate.

Regarding `C=CCc1cccc(/C=N/NC(=O)CN2CCCN(Cc3ccccc3)CC2)c1O` [Amorphous form, orbit azine monofumarate], the IC50 in series [1] (listed as an amorphous form) came out at 6580 nM; in series [2] (setting [13]) it was 1780 nM; in series [4] (listed as an amorphous form), 447 nM; in series [5] (listed as an amorphous form), 2520 nM; in [6] (setting [13]), 8380 nM; in [7] (setting [13]) it was 1600 nM. Further, the half-inhibitory concentration (IC50) in [8] (listed as an amorphous form) came to 5650 nM; with human lymphoma cell U937 (setting [13]), 418 nM; in [9] (setting [13]) it was 2970 nM. Also, the “Purity, High temperature (60° C.)” value in [3] is 95.989%. In addition, in series [3], the “Purity, High humidity (RH = 92.5%)” value is given as 97.537%. Moreover, the Crystal form entry in series [3] was “converted to Form B under the condition of high humidity”. Moreover, the “Purity of raw material” value in series [3] came out at 97.980%. In addition, in [3], the “Purity, Illumination (ultraviolet lamp)” value came to 96.880%. Besides, the “Hygroscopicity, weight increase/%” value in the series “Hygroscopicity” (2014 Nov. 17 to 2014 Nov. 24) was found to be 118.620%. Moreover, the “Hygroscopicity” value in “Hygroscopicity” (moisture absorption) is given as “significant weight increase”. For the same molecule, the Purity in [10] (0 h (baseline)) is given as 97.980%; in series [10] (4 h) it was 87.266%; in series [10] (24 h), 85.026%.
In the case of `C=CCc1cccc(/C=N/NC(=O)CN2CCCN(Cc3ccccc3)CC2)c1O` [Form A, orbit azine monofumarate], the IC50 was 6480 nM in series [1]; 1770 nM in series [2] (72 h); 433 nM in series [4]; 2880 nM in series [5]; 8410 nM in [6] (72 h); 1360 nM in series [7] (72 h). For the same molecule, the values for the IC50 (in [8]; in the series on human lymphoma cell U937 (72 h); in series [9] (72 h)) were 5680 nM, 425 nM and 2990 nM, respectively. Further, the Appearance result in series [11] (High humidity), in series [11] (High temperature) and in [11] (Illumination) was “white solid” throughout. Besides, in [3], the “Purity, High temperature (60° C.)” value is 97.665%. Also, the “Purity, High humidity (RH = 92.5%)” value in series [3] was 97.699%. Moreover, in series [3], the Crystal form result is on record as “Form A”. In series [3], the “Purity of raw material” value worked out at 98.096%. The “Stability of purity” value in series [3] is listed as “relatively stable”. For the same molecule, the “Purity, Illumination (ultraviolet lamp)” value in series [3] amounted to 97.775%. Besides, the “Water absorbability” value in the series “Hygroscopicity” (product of Example 1) is reported as “no water absorbability”. The results for the Purity in series [10] (0 h (baseline)), in series [10] (4 h) and in series [10] (24 h) were 98.069%, 87.153% and 84.864%, respectively.
Regarding `C=CCc1cccc(/C=N/NC(=O)CN2CCCN(Cc3ccccc3)CC2)c1O` [Form B, orbit azine monofumarate monohydrate], the “Extent of degradation compared” value in [12] (hydrochloric acid medium pH=1.2) is “degraded to a slightly less extent”. Moreover, the Purity amounted to 98.413% in series [12] (setting [14]); 79.443% in series [12] (24 h, monofumarate monohydrate); 78.122% in [12] (48 h, monofumarate monohydrate); 98.413% in series [10] (setting [14]); 93.112% in [10] (4 h, monofumarate monohydrate); 90.266% in series [10] (24 h, monofumarate monohydrate). Also, the “Change of purity” value in series [12] is reported as “decreased greatly”. For the same molecule, the IC50 is 6160 nM in series [1] (monofumarate monohydrate); 1980 nM in [2] (72 h, monofumarate monohydrate); 430 nM in series [4] (monofumarate monohydrate); 2310 nM in [5] (monofumarate monohydrate); 8320 nM in series [6] (72 h, monofumarate monohydrate); 1390 nM in series [7] (72 h, monofumarate monohydrate). Besides, the IC50 in series [8] (monofumarate monohydrate) worked out at 5760 nM; with human lymphoma cell U937 (72 h, monofumarate monohydrate), 495 nM; in [9] (72 h, monofumarate monohydrate), 2900 nM. Also, the Appearance result was “white solid” in series [11] (High humidity, monofumarate monohydrate); “white solid” in series [11] (High temperature, monofumarate monohydrate); “white solid” in series [11] (Illumination, monofumarate monohydrate). The “Purity, High temperature (60° C.)” value in series [3] (monofumarate monohydrate) is on record as 97.809%. In addition, in [3] (monofumarate monohydrate), the “Purity, High humidity (RH = 92.5%)” value amounted to 98.176%. In series [3] (monofumarate monohydrate), the Crystal form entry is “Form B”. In addition, in series [3] (monofumarate monohydrate), the “Purity of raw material” value is on record as 98.413%. Also, the “Stability of purity” value in series [3] is on record as “relatively stable”. Also, the “Purity, Illumination (ultraviolet lamp)” value in series [3] (monofumarate monohydrate) worked out at 98.116%. The “Degradation in the medium with pH=6.8” value in series [10] (pH = 6.8, 37° C.) is recorded as “degraded to a slightly less extent”.
As for `C=CCc1cccc(/C=N/NC(=O)CN2CCCN(Cc3ccccc3)CC2)c1O` [Form C, orbit azine difumarate], the Purity in [12] (0 h (baseline)) was 97.865%; in series [12] (24 h) it was 72.042%; in series [12] (48 h), 71.017%; in series [10] (0 h (baseline)), 94.584%; in [10] (4 h), 83.292%; in [10] (24 h), 82.680%. For the same molecule, the “Change of purity” value in series [12] was “decreased greatly”. Besides, the IC50 worked out at 6370 nM in series [1]; 1920 nM in series [2] (72 h); 411 nM in series [4]; 2650 nM in series [5]; 8210 nM in series [6] (72 h); 1280 nM in series [7] (72 h). Moreover, the results for the IC50 (in [8]; in the series on human lymphoma cell U937 (72 h); in series [9] (72 h)) were 5490 nM, 391 nM and 3070 nM, respectively. For the same molecule, the “Change of color” value in series [11] is given as “turned slightly yellow”. In addition, the Appearance entry in series [11] (High humidity) and in series [11] (High temperature) was “white solid” each time. Moreover, the “Purity, High temperature (60° C.)” value in [3] was determined as 97.244%. In addition, in [3], the “Purity, High humidity (RH = 92.5%)” value is 97.733%. For the same molecule, the Crystal form entry in [3] is given as “Form C”. Further, the “Purity of raw material” value in series [3] was 97.865%. In addition, in series [3], the “Purity, Illumination (ultraviolet lamp)” value was 95.696%.
For the molecule `C=CCc1cccc(/C=N/NC(=O)CN2CCCN(Cc3ccccc3)CC2)c1O` [Form D, orbit azine difumarate], the IC50 in series [1] (Homo sapiens) worked out at 6950 nM; in series [2] (Homo sapiens, SW480, 72 h), 1670 nM; in series [4] (Homo sapiens), 484 nM; in [5] (Homo sapiens) it was 2710 nM; in [6] (Homo sapiens, HepG2, 72 h) it was 8180 nM; in [7] (Homo sapiens, MGC-803, 72 h), 1450 nM. Besides, the IC50 in [8] (Homo sapiens, HeLa) was 5170 nM; in the series with human lymphoma cell U937 (Homo sapiens, U-937, 72 h), 414 nM; in series [9] (Homo sapiens, A549, 72 h), 2870 nM. Further, the values for the Purity in [10] (0 h (baseline)), in [10] (4 h) and in [10] (24 h) were 97.999%, 85.418% and 84.552%, respectively.
